“And” between values parts separate entries of the source, which are not always exact repeats. Identical values can stand only once.
Molecular target: Cannabinoid receptor 1 (Rattus norvegicus, UniProt P20272)
Sequence (P20272 whole entry): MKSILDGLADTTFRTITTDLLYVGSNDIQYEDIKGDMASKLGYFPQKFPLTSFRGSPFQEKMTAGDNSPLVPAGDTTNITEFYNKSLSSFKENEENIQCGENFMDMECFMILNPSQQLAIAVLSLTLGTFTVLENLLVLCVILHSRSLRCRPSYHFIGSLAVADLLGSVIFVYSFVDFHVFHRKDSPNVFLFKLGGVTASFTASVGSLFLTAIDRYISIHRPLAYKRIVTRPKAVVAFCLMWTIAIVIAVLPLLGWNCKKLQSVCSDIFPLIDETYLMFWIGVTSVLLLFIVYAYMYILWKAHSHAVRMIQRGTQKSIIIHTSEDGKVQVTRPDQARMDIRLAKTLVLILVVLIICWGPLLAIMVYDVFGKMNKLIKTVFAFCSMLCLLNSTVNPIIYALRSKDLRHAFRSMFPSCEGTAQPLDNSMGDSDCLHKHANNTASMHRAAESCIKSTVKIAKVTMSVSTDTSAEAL

| SMILES | Ki |
| --- | --- |
| CCCCC[C@@H](C)[C@H](C)c1cc(O)c2c(c1)OC(C)(C)[C@@H]1CC=C(C)C[C@@H]21 | 1.59 nM |
| CCCCCCC(C)(C)c1cc(O)c2c(c1)OC(C)(C)[C@@H]1CCC(CO)=CC21 (stereo partly specified) [(3-(1,1-Dimethyl-heptyl)-9-hydroxymethyl-6,6-dimethyl-6a,7,8,10a-tetrahydro-6H-benzo[c]chromen-1-ol (HU210)] | 126 nM |
| CCCCCCC(C)(C)c1cc(O)c2c(c1)OC(C)(C)[C@@H]1CCC(=O)C[C@@H]21 [(6aR,10aR)-3-(1,1-Dimethyl-heptyl)-1-hydroxy-6,6-dimethyl-6,6a,7,8,10,10a-hexahydro-benzo[c]chromen-9-one] | 22.3 nM |
| CCCC(C)(C)c1ccc([C@H]2CCC[C@@H](O)C2)c(O)c1 [Bicyclic analogs III] | 3760 nM |
| CCC(C)(C)c1ccc([C@H]2CCC[C@@H](O)C2)c(O)c1 [Bicyclic analogs II] | > 10000 nM |
| CCCCC(C)(C)c1ccc([C@H]2CCC[C@@H](O)C2)c(O)c1 [Bicyclic analogs IV] | 9.54 nM |
| CCCCCCCCCC(C)(C)c1ccc([C@H]2CCC[C@@H](O)C2)c(O)c1 [Bicyclic analogs IX] | 163 nM |
| CC(C)(C)c1ccc([C@H]2CCC[C@@H](O)C2)c(O)c1 [Bicyclic analogs I] | > 10000 nM |
| CCCCCCCCC(C)(C)c1ccc([C@H]2CCC[C@@H](O)C2)c(O)c1 [Bicyclic analogs VIII] | 28.5 nM |
| CCCCCCCC(C)(C)c1ccc([C@H]2CCC[C@@H](O)C2)c(O)c1 [Bicyclic analogs VII] | 4.73 nM |
| CCCCCC(C)(C)c1ccc([C@H]2CCC[C@@H](O)C2)c(O)c1 [Bicyclic analogs V] | 126 nM |
| OCCC[C@@H]1CC[C@@H](O)C[C@H]1c1ccccc1O [Bicyclic analogs XIII] | > 10000 nM |
| CCCCCCC(C)(C)c1ccc([C@@H]2C[C@H](O)CC[C@H]2C)c(O)c1 [Bicyclic analogs XI] | 6.15 nM and 7.7 nM |
| CCCCCCC(C)(C)c1ccc([C@@H]2C[C@H](O)CC[C@H]2CCCCO)c(O)c1 [Bicyclic analogs XVI] | 1.55 nM |
| CCCCCCCCCCC(C)(C)c1ccc([C@H]2CCC[C@@H](O)C2)c(O)c1 [Bicyclic analogs X] | 381 nM |
| CCCCCCC(C)(C)c1ccc([C@H]2CCC[C@@H](O)C2)c(O)c1 [CP-47,497] | 735 nM |
| CCCCCC(C)C(C)c1cc(O)c2c(c1)OC(C)(C)C1=C2CC(C)CC1 (stereo unspecified) [DMHP, 1', 2'] | 1.56 nM |
| CCCCCc1cc(O)c2c(c1)OC(C)(C)C1CCC(C)(O)CC21 (stereo unspecified) [NSC_169742] | 124 nM and 171 nM |
| C=C(C)C1CCC(C)=CC1c1c(O)cc(O)cc1CCCCC (stereo unspecified) [NSC_3060519] | > 10000 nM |
| CCCCCc1cc(OCCCN)c2c(c1)OC(C)(C)[C@@H]1CCC(C)=C[C@@H]21 [THC, 1-O-(3-Aminopropyl)] | > 10000 nM |
| CCCCCc1cc(OCCCCN)c2c(c1)OC(C)(C)[C@@H]1CCC(C)=C[C@@H]21 [THC, 1-O-(4-Aminobutyl)] | > 10000 nM |

| SMILES | Ki |
| --- | --- |
| CCCCCc1cc(OCCCCCCN)c2c(c1)OC(C)(C)[C@@H]1CCC(C)=C[C@@H]21 [THC, 1-O-(6-Aminohexyl)] | 1730 nM |
| CCCCCc1cc(OC(N)=O)c2c(c1)OC(C)(C)[C@@H]1CCC(C)=C[C@@H]21 [THC, 1-O-Carbamoyl] | > 10000 nM |
| C=C1CC[C@@H]2[C@@H](C1)c1c(OC)cc(CCC(CC)CCC)cc1OC2(C)C (stereo partly specified) [THC, 1-O-Methyl-3-(norpentyl)-3-propyl] | > 10000 nM |
| CCCCCCC(C)(C)c1cc(OCc2ccc(-c3ccccc3)cc2)c2c(c1)OC(C)(C)[C@@H]1CCC(CO)=C[C@@H]21 [THC, 1-O-biphenylmethyl-delta 8] | > 10000 nM |
| C=C1CC[C@@H]2[C@@H](C1)c1c(OC)cc(CCCCC)cc1OC2(C)C [THC, 1-O-methyl-delta 9,11] | 827 nM |
| CCCCCc1cc(OC)c2c(c1)OC(C)(C)[C@@H]1CCC(C)=C[C@@H]21 [THC, 1-O-methyl-delta 9] | > 10000 nM |
| C=C1CC[C@@H]2[C@@H](C1)c1c(O)cc(CCC(CC)CCC)cc1OC2(C)C (stereo partly specified) [THC, 3-(Norpentyl)-3-propyl] | 968 nM |
| CC1=C[C@H]2c3c(O)cc(CCCCCBr)cc3OC(C)(C)[C@@H]2CC1 [THC, 5'-Br] | 7.63 nM |
| CC1=C[C@H]2c3c(O)cc(CCCCC(F)(F)F)cc3OC(C)(C)[C@@H]2CC1 [THC, 5'-F3] | 19.9 nM |
| CC1=C[C@H]2c3c(O)cc(CCCCCF)cc3OC(C)(C)[C@@H]2CC1 [THC, 5'-F] | 57 nM |
| CC1=C[C@H]2c3c(O)cc(CCCCCI)cc3OC(C)(C)[C@@H]2CC1 [THC, 5'-I] | 7.77 nM |
| CC1=C[C@H]2c3c(O)cc(CCCCCO)cc3OC(C)(C)[C@@H]2CC1 [THC, 5'-OH] | 87.6 nM |
| CCCCCc1cc(O)c2c(c1)OC(C)(C)[C@@H]1C[C@@H](O)C(C)=C[C@@H]21 [THC, 8 beta-OH] | 820 nM |
| CCCCCc1cc(O)c2c(c1)OC(C)(C)[C@@H]1CCC(C(=O)O)=C[C@@H]21 [THC, 9-Nor-9-carboxy-delta 9] | > 10000 nM |
| CCCCCc1cc(OC)c2c(c1)OC(C)(C)[C@@H]1CCC(CF)=C[C@@H]21 [THC, 11-F] | 107 nM |
| CC1(C)Oc2cc(CCCCC[N+](C)(C)C)cc(O)c2[C@@H]2C=C(CO)CC[C@H]21 [THC, 11-OH-5'-TMA] | 2110 nM |
| CCCCCc1cc(O)c2c(c1)OC(C)(C)[C@@H]1CCC(CO)=C[C@@H]21 [THC, 11-OH-delta 9] | 38.4 nM |
| CCCCCc1cc(OC(C)C)c2c(c1)OC(C)(C)[C@@H]1CCC(C)=C[C@@H]21 [THC, O, 2-propano] | > 10000 nM |
| CCCCCc1cc(O)c2c(c1)OC(C)(C)[C@@H]1CCC(C)=C(CO)[C@@H]21 [THC, O, 10-Methano] | > 10000 nM |
| CCCCCCC(C)(C)c1cc(O)c2c(c1)OC(C)(C)[C@H]1CCC(CO)=C[C@H]21 [THC-DMH, (-)-11-OH] | 0.72 nM |
